Reference: patent US8895580B2, “Quinolinone-pyrazolone M1 receptor positive allosteric modulators” (Merck Sharp & Dohme Corp., priority 2009, dated 2014)

Target: T1, acetylcholine muscarinic M1 receptor (CHOnfat/hM1 cells) (Homo sapiens, UniProt P11229)
T1 construct: expressed in transfected cells; host or cells: CHOnfat cells (CHOnfat/hM1; Geneticin-selected)
T1 sequence (P11229 1-460): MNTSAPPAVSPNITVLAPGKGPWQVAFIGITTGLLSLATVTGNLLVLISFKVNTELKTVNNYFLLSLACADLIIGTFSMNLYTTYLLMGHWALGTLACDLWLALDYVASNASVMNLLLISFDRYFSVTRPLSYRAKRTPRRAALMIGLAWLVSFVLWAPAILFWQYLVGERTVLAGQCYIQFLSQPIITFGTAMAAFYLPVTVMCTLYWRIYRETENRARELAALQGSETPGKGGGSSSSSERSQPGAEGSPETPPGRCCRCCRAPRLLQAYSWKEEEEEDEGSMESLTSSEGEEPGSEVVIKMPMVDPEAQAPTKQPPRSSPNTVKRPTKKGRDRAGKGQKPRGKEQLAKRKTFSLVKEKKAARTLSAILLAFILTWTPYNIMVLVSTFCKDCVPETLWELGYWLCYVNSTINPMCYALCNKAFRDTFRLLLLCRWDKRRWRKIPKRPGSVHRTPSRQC
Assay: muscarinic M1 FLIPR intracellular calcium assay (positive allosteric modulation)
Format: cell-based
Conditions: FLIPR Ca2+, 4 min preincubation, then EC20 acetylcholine (3 nM final), read-out: IP Value (inflection point)
Method: The assay studies the effect of one or several concentrations of test compounds on basal or acetylcholine-stimulated Ca^2+ levels using FLIPR.
Compounds are prepared and subjected to a preincubation period of 4 min. Thereafter, a single EC20 concentration of acetylcholine is added to each well (3 nM final). The intracellular Ca^2+ level of each sample is measured and compared to an acetylcholine control to determine any modulatory activity.
Cells: CHOnfat/hM1, hM2, hM3 or hM4 cells are plated 24 hr before the assay at a density of 18,000 cells/well (100 μL) in a 384 well plate. CHOnfat/hM1 and CHOnfat/hM3 Growth Medium: 90% DMEM (Hi Glucose); 10% HI FBS; 2 mM L-glutamine; 0.1 mM NEAA; Pen-Strep; and 1 mg/ml Geneticin, are added. For M2Gqi5CHOnfat and M4Gqi5CHOnfat cells, an additional 600 ug/ml hygromycin is added.
Equipment: 384 well plate, 1204 addition plate; 96-well Whatman 2 ml Uniplate Incubator, 37° C., 5% CO2; Skatron EMBLA-384 Plate Washer; Multimek Pipetting System; Genesis Freedom 200 System; Mosquito System; Temo Nanoliter Pipetting System; and FLIPR^384 Fluorometric Imaging Plate Reader System are used.
Buffers. Assay Buffer: Hanks Balanced Salt Solution, with 20 mM Hepes, 2.5 mM Probenecid (Sigma P-8761) first dissolved in 1 N NaOH, 1% Bovine Serum Albumin (Sigma A-9647). Dye Loading Buffer: Assay Buffer plus 1% Fetal Bovine Serum and Fluo-4AM/Pluronic Acid Mixture. 2 mM Fluo-4AM ester stock in DMSO (Molecular Probes F-14202) Concentration of 2 μM in buffer for a final concentration of 1 μM in Assay. 20% Pluronic Acid Solution stock, with concentration of 0.04% in Buffer, 0.02% in Assay.
65 μL of 2 mM Fluo-4AM are mixed with 130 μL of 20% Pluronic Acid. The resulting solution and 650 μL FBS is added to the assay buffer for a total volume of 65 mL. Positive Controls: 4-Br-A23187: 10 mM in DMSO; final concentration 10 μM. Acetylcholine: 10 mM in water, working stock at both 20 μM and 30 μM in assay buffer, final concentration of 10 μM. This is used to check the maximum stimulation of the CHOK1/hM1 cells, 20 μM (2×) acetylcholine is added in the preincubation part of the assay, and the 30 μM (3×) stock is added in the second part. (EC20)Acetylcholine: 10 mM in water, working stock of 9 nM (3×), and final concentration in assay is 3 nM. This is used after the preincubation with test compounds. Addition of the EC20 Acetylcholine to each well with a test compound will ascertain any modulator activity. 24 wells contain 3 nM Acetylcholine alone as a control.
Determining Activity of Putative Compounds:
Screening Plate Compounds are titrated in 96-well plates (columns 2-11), 100% DMSO, started at a concentration of 15 mM (150× stock concentration), and 3-fold serial dilutions using Genesis Freedom200 System. Four 96-well plates are combined into a 384-well plate using Mosquito Nanoliter Pipetting System by transferring 1 μl of serial diluted compounds to each well, and 1 mM acetylcholine (100× stock concentration) were added as a control. Using Temo, 49 μl assay buffer is added to each well of the 384-well plate right before assay.
In a 96-well Whatman 2 ml Uniplate, 9 nM Acetylcholine (3×) is pipetted into wells corresponding to the screening compounds, and into control wells. The 30 μM acetylcholine control (3×) is added into control wells, and the 3× agonist plate is transferred into a 384 well plate.
Cells are washed three times with 100 μl, of buffer, leaving 30 μl of buffer in each well. Using Multimek, 30 μL of Dye Loading Buffer is added into each well and incubated at 37° C., 5% CO2 for up to one hr.
After 60 min, the cells are washed three times with 100 μl of buffer, leaving 30 μl, of buffer in each well. The cell plate, screening plate, and agonist addition plates are placed on the platform in the FLIPR and the door closed. A signal test to check background fluorescence and basal fluorescence signal is performed. Laser intensity is adjusted if necessary. […]

EC50 [µM]	Compound
0.022	N#Cc1cccc(F)c1-n1nc2c3ccccc3n(Cc3ccc(-n4cccn4)cc3)cc-2c1=O [Example 667, 3-Fluoro-2-(3-oxo-5-{[4-(1H-pyrazol-1-yl)phenyl]methyl}-3,5-dihydro-2H-pyrazolo[4,3-c]quinolin-2-yl)benzonitrile]
0.059	O=c1c2cn(Cc3ccc(-n4cccn4)cc3)c3ccccc3c-2nn1-c1ccccc1F [Example 107, 2-Fluorophenyl-5-{[4-(1H-pyrazol-1-yl)phenyl]methyl}-2,5-dihydro-3H-pyrazolo[4,3-c]quinolin-3-one]
0.159	CC(C)Cn1cc(-c2ccc(Cn3cc4c(=O)n(-c5ccccc5F)nc-4c4ccccc43)cn2)cn1 [Example 242]
0.065	O=c1c2cn(Cc3ccc(-n4cccn4)cc3)c3c(F)ccc(F)c3c-2nn1-c1ncccc1C(F)(F)F [Example 77, 6,9-Difluoro-5-{[4-(1H-pyrazol-1-yl)phenyl]methyl}-2-[3-(trifluoromethyl)pyridin-2-yl]-2,5-dihydro-3H-pyrazolo[4,3-c]quinolin-3 one]
0.824	O=c1c2cn(Cc3c(F)cccc3F)c3ccccc3c-2nn1-c1ccccc1F [Example 294]
1.25	CCN(CC)C(=O)Cn1nc2c3ccccc3n(Cc3ccc(-n4cccn4)cc3)cc-2c1=O [Example 690, N,N-Diethyl-2-(3-oxo-5-{[4-(1H-pyrazol-1-yl)phenyl]methyl}-3,5-dihydro-2H-pyrazol[4,3-c]quinolin-2-yl)acetamide]
0.9	O=c1c2cn(Cc3ccc(-c4ncco4)cc3)c3ccccc3c-2nn1-c1ccccc1F [Example 381]
1.64	O=c1c2cn(Cc3ccc(-c4ccc5[nH]ccc5c4)cc3F)c3ccccc3c-2nn1-c1ccccc1F [Example 187, 5{[2-Fluoro-4-(1H-indol-5-yl)phenyl]methyl}-2-(2-fluorophenyl)-2,5-dihydro-3H-pyrazolo[4,3-c]quinolin-3-one]
1.29	O=c1c2cn(Cc3nccc4ccccc34)c3ccccc3c-2nn1-c1ccccc1F [Example 128]
0.0048	O=C1CCc2cccc(-n3nc4c5ccccc5n(Cc5ccc(-n6cccn6)cc5)cc-4c3=O)c21 [Example 587]
0.135	O=C1CCCCC1n1nc2c3ccccc3n(Cc3ccc(-n4cccn4)cc3)cc-2c1=O (racemic) [Example 720, (±)-2-(2-oxocyclohexyl)-5-{[4-(1H-pyrazol-1-yl)phenyl]methyl}-2,5-dihydro-3H-pyrazolo[4,3-c]quinolin-3-one]
0.415	COc1ccc(Cn2cc3c(=O)n(-c4ccccc4F)nc-3c3ccccc32)cc1 [Example 1, 2-(2-Fluorophenyl)-5-{[4-(methoxy)phenyl]methyl}-2,5-dihydro-3H-pyrazolo[4,3-c]quinolin-3-one]
0.653	Cc1ccnc(N[C@H]2CCCC[C@@H]2n2cc3c(=O)n(-c4nccc(C)c4F)nc-3c3c(NCc4ccc(-n5cccn5)cc4)c(F)ccc32)c1F (racemic) [Example 733, (±)-8-Fluoro-2-(3-fluoro-4-methylpyridin-2-yl)-5-trans-2-[(3-fluoro-4-methylpyridin-2-yl)amino]cyclohexy}-9-({[4-(1H-pyrazol-1-yl)phenyl]methyl}amino)-2,5-dihydro-3H-pyrazolo[4,3-c]quinolin-3-one]
0.179	O=c1c2cn(Cc3ccc(-n4cccn4)cc3)c3ccccc3c-2nn1-c1ccccc1CN1CCCC1 [Example 648, 5-{[4-(1H-Pyrazol-1-yl)phenyl]methyl}-2-[2-(pyrrolodin-1-ylmethyl)phenyl]-2,5-dihydro-3H-pyrazolo[4,3-c]quinolin-3-one]
0.359	O=c1c2cn(Cc3ccc(-n4cccn4)cc3)c3ccccc3c-2nn1C1CCOCC1 [Example 428]
0.103	Cn1cnc(-n2nc3c4c(F)ccc(F)c4n(Cc4ccc(-n5cccn5)cc4)cc-3c2=O)c1 [Example 24, 6,9-Difluoro-2-(1-methyl-1H-imidazol-4-yl)-5-{[4-(1H-pyrazol-1-yl)phenyl]methyl}-2,5-dihydro-3H-pyrazolo[4,3-c]quinolin-3-one]
4.87	CNC(=O)c1ccccc1-n1nc2c3ccccc3n(Cc3ccc(-n4cccn4)cc3)cc-2c1=O [Example 612, N-Methyl-2-(3-oxo-5-{[4-(1H-pyrazol-1-yl)phenyl]methyl}-3,5-dihydro-2H-pyrazolo[4,3-c]quinolin-2-yl)benzamide]
0.09	O=c1c2cn(Cc3ccc4[nH]ccc4c3)c3ccccc3c-2nn1-c1ccccc1F [Example 109, 2-(2-Fluorophenyl)-5-(1H-indol-5-ylmethyl)-2,5-dihydro-3H-pyrazolo[4,3-c]quinolin-3-one]
1.99	O=c1c2cn(Cc3ccc(-c4ccccc4)cc3)c3ccccc3c-2nn1-c1ccccc1F [Example 8, 2-(2-Fluorophenyl)-5-(biphenyl-4-ylmethyl)-2,5-dihydro-3H-pyrazolo[4,3-c]quinolin-3-one]
0.033	O=c1c2cn(Cc3ccc(-n4cccn4)cc3)c3ccccc3c-2nn1[C@H]1CCCC[C@@H]1O (racemic) [Example 508, (±)-2-(trans-2-Hydroxycyclohexyl)-5-{[4-(1H-pyrazol-1-yl)phenyl]methyl}-2,5-dihydro-3H-pyrazolo[4,3-c]quinolin-3-one]
0.204	O=c1c2cn(Cc3ccc(-n4cccn4)cc3)c3c(F)ccc(F)c3c-2nn1-c1ccccc1CO [Example 55, 6,9-Difluoro-2-[2-(hydroxymethyl)phenyl]-5-{[4-(1H-pyrazol-1-yl)phenyl]methyl}-2,5-dihydro-3H-pyrazolo[4,3-c]quinolin-3-one]
0.664	CC(=O)N1CCC(n2nc3c4ccccc4n(Cc4ccc(-n5cccn5)cc4)cc-3c2=O)CC1 [Example 675, 2-(1-Acetylpiperidin-4-yl)-5-{[4-(1H-pyrazol-1-yl)phenyl]methyl}-2,5-dihydro-3H-pyrazolo[4,3-c]quinolin-3-one5]
0.123	CCNCc1ccccc1-n1nc2c3c(F)ccc(F)c3n(Cc3ccc(-n4cccn4)cc3)cc-2c1=O [Example 56]
0.348	O=c1c2cn(Cc3ccc(-n4cncn4)cc3F)c3c(F)ccc(F)c3c-2nn1-c1ccccc1F [Example 84, 6,9-Difluoro-2-(2-fluorophenyl)-5-{[2-fluoro-4-(1H-1,2,4-triazol-1-yl)phenyl]methyl}-2,5-dihydro-3H-pyrazolo[4,3-c]quinolin-3-one]
0.246	Cc1ccc(-c2ccc(Cn3cc4c(=O)n(-c5ccccc5F)nc-4c4ccccc43)nc2)cn1 [Example 258]
